In PubChem BioAssay AID1259407 (Chemical Carcinogenesis Research Information System (CCRIS), 2018):
The source made the active and inactive calls. How the calls were made is not given here.

Tested on: CCRIS mutagenicity, Ames/micronucleus/aberration tests
Test: CCRIS mutagenicity studies
[1] = Test System: AMES SALMONELLA TYPHIMURIUM, Strain/Indicator: TA98, Metabolic Activation: NONE, Method: PREINCUBATION
[2] = Test System: AMES SALMONELLA TYPHIMURIUM, Strain/Indicator: TA98, Metabolic Activation: RAT, LIVER, S-9, AROCLOR 1254, Method: PREINCUBATION
[3] = Test System: AMES SALMONELLA TYPHIMURIUM, Strain/Indicator: TA100, Metabolic Activation: NONE, Method: PREINCUBATION
[4] = Test System: AMES SALMONELLA TYPHIMURIUM, Strain/Indicator: TA100, Metabolic Activation: RAT, LIVER, S-9, AROCLOR 1254, Method: PREINCUBATION

Measured: mutagenic call

CC(C)(C)OO
active: End Point: In vitro micronucleus, Test System: Chinese hamster V79 cells, Metabolic Activation: None active; positive (hibiscus tiliaceus l methanolic extract at doses above 0.010 mg/ml had | Test System: AMES SALMONELLA TYPHIMURIUM, Strain/Indicator: TA102, Metabolic Activation: NONE, Method: STANDARD PLATE active; positive | Test System: AMES SALMONELLA TYPHIMURIUM, Strain/Indicator: TA1537, Metabolic Activation: HAMSTER, LIVER, S-9, AROCLOR 1254, Method: PREINCUBATION active; positive | Test System: AMES SALMONELLA TYPHIMURIUM, Strain/Indicator: TA1537, Metabolic Activation: NONE, Method: PREINCUBATION active; positive | Test System: AMES SALMONELLA TYPHIMURIUM, Strain/Indicator: TA1537, Metabolic Activation: RAT, LIVER, S-9, AROCLOR 1254, Method: PREINCUBATION active; positive | Test System: AMES SALMONELLA TYPHIMURIUM, Strain/Indicator: TA2638, Metabolic Activation: NONE, Method: STANDARD PLATE active; positive | Test System: AMES SALMONELLA TYPHIMURIUM, Strain/Indicator: TA2638A, Metabolic Activation: NONE, Method: STANDARD PLATE active; positive | Test System: E. COLI, Strain/Indicator: IC202, Metabolic Activation: NONE, Method: STANDARD PLATE active; positive | Test System: E. COLI, Strain/Indicator: IC203, Metabolic Activation: NONE, Method: STANDARD PLATE active; positive | Test System: E. COLI, Strain/Indicator: IC5059, Metabolic Activation: NONE, Method: STANDARD PLATE active; positive | Test System: E. COLI, Strain/Indicator: IC5064, Metabolic Activation: NONE, Method: STANDARD PLATE active; positive | Test System: E. COLI, Strain/Indicator: IC5184, Metabolic Activation: NONE, Method: STANDARD PLATE active; positive | Test System: E. COLI, Strain/Indicator: IC5185, Metabolic Activation: NONE, Method: STANDARD PLATE active; positive | Test System: E. COLI, Strain/Indicator: WP2 (PKM101), Metabolic Activation: NONE, Method: STANDARD PLATE active; positive | Test System: E. COLI, Strain/Indicator: WP2 UVRA (PKM101), Metabolic Activation: NONE, Method: STANDARD PLATE active; positive | Test System: E. coli, Strain/Indicator: WP2 IC185 trpE65, Metabolic Activation: None, Method: Plate incorporation (Test material solvent: 1 x M9 buffer) active; positive. linalool, myrcene and eycalyptol did not inhibit mutagenesis. | Test System: E. coli, Strain/Indicator: WP2 IC202 trpE65 oxyR/pKM101, Metabolic Activation: None, Method: Plate incorporation (Test material solvent: 1 x M9 buffer) active; positive. linalool, myrcene and eycalyptol inhibited mutagenesis.
inactive: Test System: AMES SALMONELLA TYPHIMURIUM, Strain/Indicator: TA98, Metabolic Activation: HAMSTER, LIVER, S-9, AROCLOR 1254, Method: PREINCUBATION inactive; negative | [1] inactive; negative | [2] inactive; negative | Test System: AMES SALMONELLA TYPHIMURIUM, Strain/Indicator: TA100, Metabolic Activation: HAMSTER, LIVER, S-9, AROCLOR 1254, Method: PREINCUBATION inactive; negative | [3] inactive; negative | [4] inactive; negative | Test System: AMES SALMONELLA TYPHIMURIUM, Strain/Indicator: TA1535, Metabolic Activation: HAMSTER, LIVER, S-9, AROCLOR 1254, Method: PREINCUBATION inactive; negative | Test System: AMES SALMONELLA TYPHIMURIUM, Strain/Indicator: TA1535, Metabolic Activation: NONE, Method: PREINCUBATION inactive; negative | Test System: AMES SALMONELLA TYPHIMURIUM, Strain/Indicator: TA1535, Metabolic Activation: RAT, LIVER, S-9, AROCLOR 1254, Method: PREINCUBATION inactive; negative

Cc1cccs1
inactive: [1] inactive; negative | [2] inactive; negative | [3] inactive; negative | [4] inactive; negative | Test System: AMES SALMONELLA TYPHIMURIUM, Strain/Indicator: TA102, Metabolic Activation: NONE, Method: PREINCUBATION inactive; negative | Test System: AMES SALMONELLA TYPHIMURIUM, Strain/Indicator: TA102, Metabolic Activation: RAT, LIVER, S-9, AROCLOR 1254, Method: PREINCUBATION inactive; negative

CC(=O)Nc1ccc2c(c1)Cc1cccc(O)c1-2
active: Test System: AMES SALMONELLA TYPHIMURIUM, Strain/Indicator: TA98, Metabolic Activation: RAT, LIVER, S-9, AROCLOR 1254, Method: STANDARD PLATE active; positive | Test System: AMES SALMONELLA TYPHIMURIUM, Strain/Indicator: TA100, Metabolic Activation: RAT, LIVER, S-9, AROCLOR 1254, Method: STANDARD PLATE active; positive | Test System: AMES SALMONELLA TYPHIMURIUM, Strain/Indicator: TA1538, Metabolic Activation: RAT, LIVER, S-9, AROCLOR 1254, Method: STANDARD PLATE active; positive

CC(=O)Nc1ccc(Cc2ccc(N)cc2)cc1
inactive: Test System: AMES SALMONELLA TYPHIMURIUM, Strain/Indicator: TA98, Metabolic Activation: NONE, Method: STANDARD PLATE inactive; negative | Test System: AMES SALMONELLA TYPHIMURIUM, Strain/Indicator: TA98, Metabolic Activation: RAT, LIVER, S-9, PCB, Method: STANDARD PLATE inactive; negative | Test System: AMES SALMONELLA TYPHIMURIUM, Strain/Indicator: TA100, Metabolic Activation: NONE, Method: STANDARD PLATE inactive; negative | Test System: AMES SALMONELLA TYPHIMURIUM, Strain/Indicator: TA100, Metabolic Activation: RAT, LIVER, S-9, PCB, Method: STANDARD PLATE inactive; negative
